Values quoted from earlier work, collected in patent publication US20090221688A1, “PHARMACEUTICAL COMPOSITIONS CONTAINING DOCETAXEL AND A DEGRADATION INHIBITOR AND A PROCESS FOR OBTAINING THE SAME” (Quiral Quimica DO Brasil S.A., priority 2006, published 2009).

Target: T1, recombinant human cytochrome P450 1B1 (hCYP1B1) (Homo sapiens, UniProt Q16678)
T1 sequence (Q16678 1-543): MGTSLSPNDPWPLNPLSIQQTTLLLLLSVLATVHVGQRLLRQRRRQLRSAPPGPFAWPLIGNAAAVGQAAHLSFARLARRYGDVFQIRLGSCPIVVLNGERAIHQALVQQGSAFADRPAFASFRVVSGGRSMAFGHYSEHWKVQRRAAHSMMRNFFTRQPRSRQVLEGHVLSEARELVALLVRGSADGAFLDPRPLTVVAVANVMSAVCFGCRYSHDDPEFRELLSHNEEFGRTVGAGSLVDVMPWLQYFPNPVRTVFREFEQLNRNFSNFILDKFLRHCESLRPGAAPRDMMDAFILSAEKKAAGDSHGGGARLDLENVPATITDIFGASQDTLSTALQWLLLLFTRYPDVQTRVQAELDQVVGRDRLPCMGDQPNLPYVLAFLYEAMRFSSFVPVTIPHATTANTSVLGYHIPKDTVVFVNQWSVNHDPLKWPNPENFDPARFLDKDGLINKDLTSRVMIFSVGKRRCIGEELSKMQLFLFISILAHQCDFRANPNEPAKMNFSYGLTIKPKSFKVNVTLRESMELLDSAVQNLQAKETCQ

For CC(=O)O[C@@]12COC1C[C@@H](O)[C@@]1(C)C(=O)[C@H](O)C3=C(C)[C@@H](OC(=O)[C@H](O)[C@@H](NC(=O)OC(C)(C)C)c4ccccc4)C[C@@](O)([C@@H](OC(=O)c4ccccc4)[C@@H]12)C3(C)C (stereo partly drawn) [7-epi-docetaxel (II), 4-acetoxy-2-α-benzoyloxy-5β-20-epoxy-1,7-α-10-β-trihydroxy-9-oxo-tax-11-en-13α-il (2R,3S) 3-tert-butoxycarbonylamino-2-hydroxy-3-phenylpropionate ester], the “Increase of the activity of hCYP1B1” value (concentration of 10 μM) is listed as “more than 7 fold”.
In the case of CC(=O)O[C@@]12COC1C[C@H](O)[C@@]1(C)C(=O)[C@H](O)C3=C(C)[C@@H](OC(=O)[C@H](O)[C@@H](NC(=O)OC(C)(C)C)c4ccccc4)C[C@@](O)([C@@H](OC(=O)c4ccccc4)[C@@H]12)C3(C)C (stereo partly drawn) [docetaxel, 4-acetoxy-2α-benzoyloxy-5β-20-epoxy-1,7-β-10-β-trihydroxy-9-oxo-tax-11-en-13α-il (2R,3S) 3-tert-butoxycarbonylamino-2-hydroxy-3-phenylpropionate ester], the “Metabolism by hCYP1B1 in vitro” value (EROD activity as a measure) is listed as “not metabolized”.
